test system: stereotypies (bruxism) induced by methyl phenidate; test: Test of the stereotypies induced by methyl phenidate in rats (inhibition of bruxism); format: in vivo, male Wistar rats; settings: Rattus norvegicus, ip, 0.5 h, read-out: ED50 (mean effective dose permitting inhibition of bruxism by 50%)
Method: 24 male Wistar rats which weighed between 220 and 240 g and which had eaten nothing for approximately 24 hours were used for this test. Each animal receives a first treatment (reference compound, compound of the invention, or solvent) at a given time before a second treatment (methyl phenidate or physiological serum), which is effected by the i.p. route at the time designated T0. Among the animals used for a test, […] serve as control and receive the following treatments: serum+serum i.p.: 1 animal (serum control); solvent+ 40 mg/kg i.p. methyl phenidate: 2 animals (40 mg/kg i.p. methyl phenidate control); and solvent+0.16, 0.63, 2.5 or 10 mg/kg i.p. of methyl phenidate: 1 animal (0.16, 0.63, 2.5 or 10 mg/kg i.p. methyl phenidate controls).
The test products were administered at given times before the injection of 40 mg/kg i.p. of methyl phenidate at T0. Each animal is observed for a period of 10 seconds. Observations of behaviour were carried out 30 minutes after the treatment with methyl phenidate. A total of 10 observation periods is carried out for each rat at time T30 min. During these observations, the presence (1) or absence (0) of stereotypy is noted.

Structure (SMILES)	ED50 [mg/kg]
CN(C)CCCN1c2ccccc2Sc2ccc(Cl)cc21 [chlorpromazine, reference compound]	1.4

same assay, conditions: Rattus norvegicus, ip, 0.5 h; rats; i.p.; given before 40 mg/kg i.p. methyl phenidate; observed 30 min after methyl phenidate; read-out: ED50 (mean effective dose permitting inhibition of bruxism by 50%)

Structure (SMILES)	ED50 [mg/kg]
Fc1ccc2c(N3CCN(CC4Cc5ccccc54)CC3)noc2c1 (racemic) [Example 1, (R,S)-3-{1-[(benzocyclobutan-1-yl)methyl]piperazin-4-yl}-6-fluoro-1,2-benzisoxazole]	0.31
c1ccc2c(c1)CC2CN1CCN(c2nsc3ccccc23)CC1 (racemic) [Example 4, (R,S)-3-{1-[(benzocyclobutan-1-yl)methyl]piperazin-4-yl}-1,2-benzisothiazole]	10
c1ccc2c(c1)CC2CN1CCN(c2noc3ccccc23)CC1 (racemic) [Example 6, (R,S)-3-{1-[(benzocyclobutan-1-yl)methyl]piperazin-4-yl}-1,2-benzisoxazole]	1.25
COc1cc2c(cc1OC)C(CN1CCN(c3noc4cc(F)ccc34)CC1)C2 (racemic) [Example 17, (R,S)-3-{1-[(4,5-dimethoxybenzocyclobutan-1-yl)methyl]-piperazin-4-yl}-6-fluoro-1,2-benzisoxazole]	2.5
Fc1ccc2c(N3CCN(CC4CCc5ccccc54)CC3)noc2c1 (racemic) [Example 18, (R,S)-3-{1-[(indan-1-yl)methyl]piperazin-4-yl}-6-fluoro-1,2-benzisoxazole]	10
COc1cc2c(cc1OC)C(CN1CCN(c3noc4ccccc34)CC1)C2 (racemic) [Example 19, (R,S)-3-{1-[(4,5-dimethoxybenzocyclobutan-1-yl)-methyl]piperazin-4-yl}-1,2-benzisoxazole]	1.25
